# Assay results published in patent publication US4593093A, “Acyl derivatives” (priority 1980, dated 1986).
# Structures can show the parent of a compound that is named as a salt. Where two headings read alike, the source gives them in different places.
# Columns and labels:
# Proteus mirabilis = assay: Activity in vitro: minimum inhibitory concentration; assay type: cell-based
# Proteus vulgaris = assay: as above; assay type: cell-based
# Citrobacter freundii = assay: as above; assay type: cell-based
# Enterobacter cloacae [1] = assay: as above; assay type: cell-based
# Toxicity, LD50 = conditions: in vivo
# Pseudomonas aeruginosa [2] = assay: Activity in vivo: survival of intraperitoneally infected mice; conditions: sc, 96 h; mice infected i.p. with Pseudomonas aeruginosa; s.c. three times, 1 h, 3 h and 5 h after infection; survival on 4th day; read-out: CD50 (dosage at which 50% of the animals survive)
# Description: (§1) Groups of 5 mice are infected intraperitoneally with an aqueous suspension of various pathogens. The test substance in physiological sodium chloride solution is administered subcutaneously twice, i.e. 1 hour and 3 hours after the infection. The number of surviving animals is determined on the 4th day. Various dosages are administered and that dosage at which 50% of the experimental animals survive (CD50, mg/kg) is determined by interpolation.
# *Administered subcutaneously three times: 1 hour, 3 hours and 5 hours
# Serratia marcescens [3] = assay: Activity in vitro: minimum inhibitory concentration; assay type: cell-based
# Staphylococcus aureus = assay: as above; assay type: cell-based
# Escherichia coli [4] = assay: as above; assay type: cell-based
# Pseudomonas aeruginosa [5] = assay: as above; assay type: cell-based
# Streptococcus pyogenes [6] = assay: as above; assay type: cell-based
# Klebsiella pseumoniae = assay: as above; assay type: cell-based
# Proteus morganii = assay: as above; assay type: cell-based; conditions: Morganella morganii
# Streptococcus pyogenes [7] = assay: Activity in vivo: survival of intraperitoneally infected mice; conditions: sc, 96 h; mice infected i.p. with Streptococcus pyogenes; s.c. twice, 1 h and 3 h after infection; survival on 4th day; read-out: CD50 (dosage at which 50% of the animals survive)
# Description: as §1
# Escherichia coli [8] = assay: as above; conditions: sc, 96 h; mice infected i.p. with Escherichia coli; s.c. twice, 1 h and 3 h after infection; survival on 4th day; read-out: CD50 (dosage at which 50% of the animals survive)
# Description: as §1
# Serratia marcescens [9] = assay: as above; conditions: sc, 96 h, 1 h and 3 h after infection, survival on 4th day, read-out: CD50 (dosage at which 50% of the animals survive)
# Description: as §1
# Streptococcus viridans = assay: Activity in vitro: minimum inhibitory concentration; assay type: cell-based
# Proteus inconstans = assay: as above; assay type: cell-based; conditions: Providencia alcalifaciens
# Enterobacter aerogenes = assay: as above; assay type: cell-based; conditions: Klebsiella aerogenes
# Streptococcus pneumoniae = assay: as above; assay type: cell-based
# Proteus rettgeri = assay: as above; assay type: cell-based; conditions: Providencia rettgeri
# Staphylococcus epidermis = assay: as above; assay type: cell-based
# Streptococcus faecalis = assay: as above; assay type: cell-based; conditions: Enterococcus faecalis
# Enterobacter cloacae [10] = assay: Activity in vivo: survival of intraperitoneally infected mice; conditions: sc, 96 h; mice infected i.p. with Enterobacter cloacae; s.c. twice, 1 h and 3 h after infection; survival on 4th day; read-out: CD50 (dosage at which 50% of the animals survive)
# Description: as §1
# Haemophilus influenzae = assay: as above; conditions: sc, 96 h; mice infected i.p. with Haemophilus influenzae; s.c. twice, 1 h and 3 h after infection; survival on 4th day; read-out: CD50 (dosage at which 50% of the animals survive)
# Description: as §1
# [11] = Pseudomonas aeruginosa strain 1
# [12] = Pseudomonas aeruginosa strain 2
# [13] = Pseudomonas aeruginosa strain 3
# [14] = Streptococcus pyogenes strain 1, read-out: Minimum inhibitory concentration
# [15] = mice infected i.p. with Serratia marcescens strain 1, s.c. twice
# [16] = Enterobacter aerogenes strain 1
# [17] = Enterobacter aerogenes strain 2
# [18] = Streptococcus faecalis strain 1
# [19] = Streptococcus faecalis strain 2
smiles,measurement,setting,value
"CO/N=C(\C(=O)N[C@@H]1C(=O)N2C(C(=O)O)=C(COC(C)=O)CS[C@H]12)c1c[se]c(N)n1 [Product D, (6R, 7R)-3-(acetoxymethyl)-7-[2-(2-amino-4-selenazolyl)-2-[(Z)-methoxyimino]-acetamido]-8-oxo-5-thia-1-azabicyclo[4.2.0]oct-2-ene-2-carboxylic acid disodium salt]",MIC,Proteus mirabilis; Proteus mirabilis strain 1,0.025 µg/mL
same,MIC,Proteus mirabilis; Proteus mirabilis strain 2,0.05 µg/mL
same,MIC,Proteus vulgaris,0.78 µg/mL
same,MIC,Citrobacter freundii; Citrobacter freundii strain 1,6.3 µg/mL
same,MIC,Enterobacter cloacae [1]; Enterobacter cloacae strain 1,> 100 µg/mL
same,MIC,Enterobacter cloacae [1]; Enterobacter cloacae strain 2,3.1 µg/mL
same,LD50,"Toxicity, LD50; po",> 5000 mg/kg
same,LD50,"Toxicity, LD50; sc",> 4000 mg/kg
same,ED50,Pseudomonas aeruginosa [2],35 mg/kg
same,MIC,Serratia marcescens [3]; Serratia marcescens strain 1,0.8 µg/mL
same,MIC,Serratia marcescens [3]; Serratia marcescens strain 2,0.8 µg/mL
same,MIC,Staphylococcus aureus; Staphylococcus aureus strain 1,0.8 µg/mL
same,MIC,Staphylococcus aureus; Staphylococcus aureus strain 2,3.1 µg/mL
same,MIC,Escherichia coli [4]; Escherichia coli strain 1,0.1 µg/mL
same,MIC,Escherichia coli [4]; Escherichia coli strain 2,0.025 µg/mL
same,MIC,Pseudomonas aeruginosa [5]; [11],12.5 µg/mL
same,MIC,Pseudomonas aeruginosa [5]; [12],12.5 µg/mL
same,MIC,Pseudomonas aeruginosa [5]; [13],3.1 µg/mL
same,MIC,Streptococcus pyogenes [6]; [14],0.05 µg/mL
same,MIC,Klebsiella pseumoniae; Klebsiella pseumoniae strain 1,0.2 µg/mL
same,MIC,Klebsiella pseumoniae; Klebsiella pseumoniae strain 2,0.025 µg/mL
same,MIC,Proteus morganii,0.39 µg/mL
same,ED50,Streptococcus pyogenes [7],0.05 mg/kg
same,ED50,Escherichia coli [8],< 0.01 mg/kg
same,ED50,Serratia marcescens [9]; [15],0.14 mg/kg
"CO/N=C(\C(=O)N[C@@H]1C(=O)N2C(C(=O)O)=C(C)CS[C@H]12)c1c[se]c(N)n1 [Product F, (6R, 7R)-7-[2-(2-amino-4-selenazolyl)-2-[(Z)-methoxyimino]-acetamido]-3-methyl-3-oxo-5-thia-1-azabicyclo[4.2.0]oct-2-ene-2-carboxylic acid sodium salt]",MIC,Proteus mirabilis; Proteus mirabilis strain 3,0.1 µg/mL
same,MIC,Proteus mirabilis; Proteus mirabilis strain 4,0.8 µg/mL
same,MIC,Proteus mirabilis; Proteus mirabilis strain 5,0.4 µg/mL
same,MIC,Citrobacter freundii; Citrobacter freundii strain 1,200 µg/mL
same,MIC,Citrobacter freundii; Citrobacter freundii strain 2,1.6 µg/mL
same,MIC,Enterobacter cloacae [1]; Enterobacter cloacae strain 1,> 200 µg/mL
same,MIC,Enterobacter cloacae [1]; Enterobacter cloacae strain 2,25 µg/mL
same,MIC,Enterobacter cloacae [1]; Enterobacter cloacae strain 3,> 200 µg/mL
same,MIC,Streptococcus viridans,12.5 µg/mL
same,MIC,Proteus inconstans,≤ 0.025 µg/mL
same,LD50,"Toxicity, LD50; po",> 5000 mg/kg
same,LD50,"Toxicity, LD50; sc",> 4000 mg/kg
same,ED50,Pseudomonas aeruginosa [2],> 200 mg/kg
same,MIC,Serratia marcescens [3]; Serratia marcescens strain 1,3.1 µg/mL
same,MIC,Serratia marcescens [3]; Serratia marcescens strain 2,6.3 µg/mL
same,MIC,Serratia marcescens [3]; Serratia marcescens strain 3,0.4 µg/mL
same,MIC,Staphylococcus aureus; Staphylococcus aureus strain 1,50 µg/mL
same,MIC,Staphylococcus aureus; Staphylococcus aureus strain 2,100 µg/mL
same,MIC,Staphylococcus aureus; Staphylococcus aureus strain 3,50 µg/mL
same,MIC,Staphylococcus aureus; Staphylococcus aureus strain 4,100 µg/mL
same,MIC,Enterobacter aerogenes; [16],0.2 µg/mL
same,MIC,Enterobacter aerogenes; [17],0.2 µg/mL
same,MIC,Streptococcus pneumoniae,12.5 µg/mL
same,MIC,Proteus rettgeri,0.1 µg/mL
same,MIC,Escherichia coli [4]; Escherichia coli strain 1,0.8 µg/mL
same,MIC,Escherichia coli [4]; Escherichia coli strain 2,0.05 µg/mL
same,MIC,Escherichia coli [4]; Escherichia coli strain 3,12.5 µg/mL
same,MIC,Escherichia coli [4]; Escherichia coli strain 4,100 µg/mL
same,MIC,Escherichia coli [4]; Escherichia coli strain 5,3.1 µg/mL
same,MIC,Pseudomonas aeruginosa [5]; [11],> 200 µg/mL
same,MIC,Pseudomonas aeruginosa [5]; [12],> 200 µg/mL
same,MIC,Pseudomonas aeruginosa [5]; [13],200 µg/mL
same,MIC,Streptococcus pyogenes [6]; [14],3.1 µg/mL
same,MIC,"Streptococcus pyogenes [6]; Streptococcus pyogenes strain 2, read-out: Minimum inhibitory concentration",0.05 µg/mL
same,MIC,Staphylococcus epidermis,100 µg/mL
same,MIC,Streptococcus faecalis; [18],> 200 µg/mL
same,MIC,Streptococcus faecalis; [19],> 200 µg/mL
same,MIC,Klebsiella pseumoniae; Klebsiella pseumoniae strain 1,0.2 µg/mL
same,MIC,Klebsiella pseumoniae; Klebsiella pseumoniae strain 2,0.05 µg/mL
same,MIC,Klebsiella pseumoniae; Klebsiella pseumoniae strain 3,0.05 µg/mL
same,MIC,Proteus morganii,50 µg/mL
same,ED50,Streptococcus pyogenes [7],< 0.05 mg/kg
same,ED50,Enterobacter cloacae [10],> 25 mg/kg
same,ED50,Escherichia coli [8],0.06 mg/kg
same,ED50,Serratia marcescens [9]; [15],0.59 mg/kg
same,ED50,"Serratia marcescens [9]; mice infected i.p. with Serratia marcescens strain 2, s.c. twice",5.1 mg/kg
same,ED50,Haemophilus influenzae,4 mg/kg
"CO/N=C(\C(=O)N[C@@H]1C(=O)N2C(C(=O)[O-])=C(CSc3n[nH]c(=O)c(=O)n3C)CS[C@H]12)c1c[se]c(N)n1.[Na+] [Product G, (6R, 7R)-7-[2-(2-amino-4-selenazolyl)-2-[(Z)-methoxyimino]-acetamido]-8-oxo-3-[[(1,4,5,6-tetrahydro-4-methyl-5,6-dioxo-as-triazin-3-yl)thio]methyl]-5-thia-1-azabicyclo[4.2.0]oct-2-ene-2-carboxylic acid sodium salt]",MIC,Proteus mirabilis; Proteus mirabilis strain 3,0.4 µg/mL
same,MIC,Proteus mirabilis; Proteus mirabilis strain 4,0.025 µg/mL
same,MIC,Proteus mirabilis; Proteus mirabilis strain 5,0.025 µg/mL
same,MIC,Citrobacter freundii; Citrobacter freundii strain 1,1.6 µg/mL
same,MIC,Citrobacter freundii; Citrobacter freundii strain 2,0.1 µg/mL
same,MIC,Enterobacter cloacae [1]; Enterobacter cloacae strain 1,> 100 µg/mL
same,MIC,Enterobacter cloacae [1]; Enterobacter cloacae strain 2,0.8 µg/mL
same,MIC,Enterobacter cloacae [1]; Enterobacter cloacae strain 3,50 µg/mL
same,MIC,Streptococcus viridans,0.8 µg/mL
same,MIC,Proteus inconstans,0.006 µg/mL
same,LD50,"Toxicity, LD50; po",> 5000 mg/kg
same,LD50,"Toxicity, LD50; sc",> 4000 mg/kg
same,ED50,Pseudomonas aeruginosa [2],> 200 mg/kg
same,MIC,Serratia marcescens [3]; Serratia marcescens strain 1,0.2 µg/mL
same,MIC,Serratia marcescens [3]; Serratia marcescens strain 2,0.4 µg/mL
same,MIC,Serratia marcescens [3]; Serratia marcescens strain 3,0.1 µg/mL
same,MIC,Staphylococcus aureus; Staphylococcus aureus strain 1,0.4 µg/mL
same,MIC,Staphylococcus aureus; Staphylococcus aureus strain 2,1.6 µg/mL
same,MIC,Staphylococcus aureus; Staphylococcus aureus strain 3,0.8 µg/mL
same,MIC,Staphylococcus aureus; Staphylococcus aureus strain 4,0.8 µg/mL
same,MIC,Enterobacter aerogenes; [16],0.1 µg/mL
same,MIC,Enterobacter aerogenes; [17],0.1 µg/mL
same,MIC,Streptococcus pneumoniae,0.1 µg/mL
same,MIC,Proteus rettgeri,0.05 µg/mL
same,MIC,Escherichia coli [4]; Escherichia coli strain 1,0.05 µg/mL
same,MIC,Escherichia coli [4]; Escherichia coli strain 2,0.012 µg/mL
same,MIC,Escherichia coli [4]; Escherichia coli strain 3,0.2 µg/mL
same,MIC,Escherichia coli [4]; Escherichia coli strain 4,0.2 µg/mL
same,MIC,Escherichia coli [4]; Escherichia coli strain 5,0.2 µg/mL
same,MIC,Pseudomonas aeruginosa [5]; [11],50 µg/mL
same,MIC,Pseudomonas aeruginosa [5]; [12],50 µg/mL
same,MIC,Pseudomonas aeruginosa [5]; [13],25 µg/mL
same,MIC,Streptococcus pyogenes [6]; [14],0.05 µg/mL
same,MIC,Staphylococcus epidermis,0.8 µg/mL
same,MIC,Streptococcus faecalis; [18],25 µg/mL
same,MIC,Streptococcus faecalis; [19],50 µg/mL
same,MIC,Klebsiella pseumoniae; Klebsiella pseumoniae strain 1,0.1 µg/mL
same,MIC,Klebsiella pseumoniae; Klebsiella pseumoniae strain 2,0.025 µg/mL
same,MIC,Klebsiella pseumoniae; Klebsiella pseumoniae strain 3,0.05 µg/mL
same,MIC,Proteus morganii,0.05 µg/mL
same,ED50,Streptococcus pyogenes [7],0.02 mg/kg
same,ED50,Enterobacter cloacae [10],9.2 mg/kg
same,ED50,Escherichia coli [8],< 0.003 mg/kg
same,ED50,Serratia marcescens [9]; [15],0.2 mg/kg
same,ED50,Haemophilus influenzae,0.25 mg/kg
